Key:
[1] = system: 3 dpf zebrafish eleuthero-embryos; experiment: Spatiotemporal fluorescence imaging after immersion, microinjection (PC, IP, IY) or combination; format: in vivo, Danio rerio
Method: We then determined the spatiotemporal distribution of the fluorescent compounds. The eleuthero-embryos were exposed to the dyes by immersion or microinjection in the pericardial cavity (PC), intraperitoneally (IP) and in the yolk sac (IY) for 48 h starting from 3 dpf on, i.e. after hatching, thus avoiding the presence of the chorion that has been reported as a potential barrier for the absorption of compounds[21],[27].
At specific time periods after treatment, the eleuthero-embryos were immobilized by hypothermia and fluorescent microscope pictures were taken.
3 dpf zebrafish eleuthero-embryos wildtype AB (n = 10 per compound) randomly selected were immersed using 6-well-plates (5 mL per well) of Danieau’s medium with a final DMSO concentration of 0.1% (v/v), containing the compounds at a concentration of 10 µM. Vehicle-treated control eleuthero-embryos were exposed to Danieau’s medium supplemented with 0.1% v/v DMSO.
3 dpf zebrafish eleuthero-embryos wildtype AB (n = 10 per compound) randomly selected were immobilized by cooling to 4 °C and positioned on 1% (w/v) agarose plates at room temperature. All compounds were microinjected using glass needles fitted to a micromanipulator (MM-33) connected to a gas pressure microinjector (Eppendorf Femtojet set - AG 22331 Hamburg). Glass capillaries (W/FIL 1.0MM 4 in TW 100F-4) were pulled (Sutter Instrument CO. Model P-87 Cat N B100-58-15 Filament: FB330B – FB320B) by using program 5 (Heat 829, Pull 158, Vel 100, Time 150). Needles were filled with compounds dissolved in vehicle (DMSO/saline (1:1)). Microinjections were performed into the pericardial cavity (PC)[47], into the yolk sac (IY)[35], or into the peritoneal cavity (IP) at a volume of 1 nL and a dose of 2 mg/kg. For the intraperitoneal microinjection, the eleuthero-embryos were positioned in lateral right recumbence under a dissecting microscope. By using a micromanipulator, the needle was inserted posteriorly and ventrolateral to the swim bladder in the peritoneal cavity. Afterwards the eleuthero-embryos were transferred to 6-well plates. Control eleuthero-embryos were exposed to vehicle only.
3 dpf zebrafish eleuthero-embryos wildtype AB (n = 10 per compound) randomly selected were immobilized and positioned on 1% (w/v) agarose plates. All compounds were microinjected using glass needles, as previously described into the PC cavity. Afterwards, the larvae were selected and transferred to a 6-well-plate, into its corresponding compound at 10 µM.
The thus-treated eleuthero-embryos were kept in the incubator at 28.5 °C (in darkness) and taken out shortly at defined time points (15’, 1 h, 3 h, 6 h, 24 h and 48 h) for image analysis.
Eleuthero-embryos were immobilized by hypothermia, rinsed three times with Danieau’s medium, and positioned latero-lateral (right lateral recumbency) in a drop of agarose (0.1%). To acquire images, a Leica MZ10F fluorescent stereomicroscope with a 4.0 × planapochromatic objective (10447243) was used, equipped with a Digital Color Camera Leica DFC310 FX (Software LAS 4.13). Filter sets were GFP 10446222 in case of compound FAMA, dSRED 10447079 in case of S-CY3A, CY3A and TAMRA, and CY5 10446366 in case of S-CY5.5A and S-CY5A. After manual delineation of the whole body (WB) contours of the zebrafish eleuthero-embryos using MetaMorph (Microscopy Automation & Image Analysis Software V.7.8.00), the fluorescence in the selected area was quantified as integrated fluorescence intensity (RFU) that adds up all fluorescence intensity values of the individual pixels. In case of the combination treatment the same correction factor for exposure time from the camera setting was applied in the case of FAMA and TAMRA, to avoid saturation of the images (Supplementary information. Figure S1)[48]. The selected images shown in the Figs. 1, 2, 3, 4, 5, 6 and 7 were arranged using MS PowerPoint (Microsoft Corporation, Seattle, USA) and the open-source GIMP (version 2.10.24 www.gimp.org 2021) software. […]

[2] = system: 3 dpf zebrafish eleuthero-embryos; experiment: Whole-body fluorescence quantification and 1-compartment PK modelling; format: in vivo, Danio rerio; conditions: for ke (total elimination rate constant): 1-compartment model fitted to all routes (immersion 10 µM, PC/IP 2 mg/kg, combination), 0-48 h; for Q (passive exchange with the medium) / t1/2 (elimination half-life, ln(2)/ke): 1-compartment model, zebrafish eleuthero-embryo; for Comparison of passive exchange with the medium (Q) among compounds: ranking in words
Description: We then quantified the relative amount of compound present in the zebrafish eleuthero-embryos by assessing the integrated fluorescence intensity of delineated whole-body contours present in the fluorescence images (Figs. 1, 2, 3, 4, 5, 6, 7).
The total measured fluorescence was proportional to total amount of compound present in the animal, as described by Eq. (1). RFUT denotes the sum of fluorescence intensity in the overall image, A denotes the amount of drug in the zebrafish, and FLUOR is a constant denoting the compound-specific fluorescence quantum yield.1 RFUT=FLUOR∗A
Simplifying by substitution of ke=Q+CL/V :3 dA/dt=-ke∗A+QM
Next, data fitting was performed with the following mathematical model:4 At=Dose∗e^-ket+MQ/ke(1-e^-ket) with Dose the injected dose (mg/kg), M the concentration in the medium (mg/L), Q the passive exchange with the medium (L/h) and ke the total elimination rate constant (h^−1). When administering the compound through immersion, the injected dose is 0 mg/kg. When injecting the compound, the concentration in medium is 0. This model was fitted to all available data using non-linear regression in R version 4.0.3.
Residual error plots were used to identify observations with poor fit.
The designed model was optimized by a non-linear least squares modelling, using Gauss–Newton algorithms under the method of iterative fashion, with R version 4.0.3, using stats::nls[50].

[3] = Experimental lipophilicity (LogD), shake-flask method with UHPLC; conditions: n-octanol / Danieau's solution, 10 µM compound
Method: Briefly, 10 µM of compound was shaken in a mixture of two mobile phases, n-octanol and Danieau’s solution (eleuthero-embryo medium) and analysed with UHPLC.
The lipophilicity of the fluorescent compounds was determined following the EPA guideline OPPTS 830.7550 Partition coefficient (shake flask method)[46] using Danieau’s solution and n-octanol as the two immiscible phases. Analyses were performed using an Agilent Infinity 1290 UHPLC system (Agilent Technologies, Waldbronn, Germany) consisting of an autosampler, quaternary pump and DAD-detector, operated with Open Lab software (version C.01.10, Agilent Technologies). […] All compounds were detected and quantified at 390 nm. For the quantification of the compounds, calibration samples were made in 50:50 ACN:MilliQ water for the compounds analysed in RPLC and 95:5 ACN:MilliQ water for compounds analysed in HILIC. […] The variation (calculated as the relative standard deviation, %RSD) for 3 injections was always below 10% (for all considered concentrations) and R^2 values of the calibration curves were all above 0.998. All calculations concerning the evaluation of the recorded data were made in MS Excel (Microsoft Corporation, Seattle, USA). […]

Q: What does the source list for `C#CCNC(=O)c1ccc(-c2c3ccc(=[N+](C)C)cc-3oc3cc(N(C)C)ccc23)c(C(=O)[O-])c1` (single isomer, unassigned) [TAMRA, Tamra alkyne 5-isomer]?
A: Intra-fish distribution after pericardial (PC) microinjection ([1]; PC microinjection 2 mg/kg): rapidly distributed to the vasculature; Level and intra-body fluorescence distribution at 48 h, combination (immersion + PC) compared with PC microinjection ([1]; immersion 10 µM + PC 2 mg/kg, 48 h): altered; Uptake after immersion (fluorescence imaging) ([1]; immersion 10 µM, 0-48 h from 3 dpf): gradually taken up over time; ke (total elimination rate constant) [2]: 0.052 h⁻¹; Q (passive exchange with the medium) [2]: 1.45 L/h × 10^−9; t1/2 (elimination half-life, ln(2)/ke) [2]: 13.35 h; LogD [3]: 0.46

Q: For `C#CCNC(=O)CCCCCN1C(=CC=CC2=[N+](C)c3ccccc3C2(C)C)C(C)(C)c2ccccc21.[Cl-]` [CY3A, Cyanine3 alkyne], which “Level and intra-body fluorescence distribution at 48 h, combination (immersion + PC) compared with PC microinjection” value ([1]; in vivo) is on record?
A: Its value is “altered”.

Q: And the “ke (total elimination rate constant)” value [2]?
A: Its value is 0.049 h⁻¹.

Q: What about the “Q (passive exchange with the medium)” value [2] of the same compound?
A: The value was 8.37 L/h × 10^−9.

Q: What about the “t1/2 (elimination half-life, ln(2)/ke)” value [2] of the same compound?
A: The value was 13.92 h.

Q: What about the “Additional effect of immersion route on intrabody exposure in combination treatment (RC3h)” value ([2]; 3 h exposure, immersion 10 µM + PC 2 mg/kg) of the same compound?
A: The value was “to a limited degree”.

Q: And the “Comparison of passive exchange with the medium (Q) among compounds” value [2]?
A: Its value is “taken up the fastest”.

Q: What about the LogD [3] of the same compound?
A: The LogD was 1.73.

Q: For `C#CCNC(=O)c1ccc2c(c1)C(=O)OC21c2ccc(O)cc2Oc2cc(O)ccc21` [FAMA, FAM alkyne, 5-isomer], which “Intra-fish distribution after pericardial (PC) microinjection” value ([1]; in vivo) is on record?
A: The value was “rapidly distributed to the vasculature”.

Q: What about the “Q (passive exchange with the medium)” value [2] of the same compound?
A: Its value is 1.71 L/h × 10^−9.

Q: And the “t1/2 (elimination half-life, ln(2)/ke)” value [2]?
A: Its value is 57.41 h.

Q: Which results are given for `C#CCNC(=O)CCCCCN1/C(=C/C=C/C=C/C2=[N+](C)c3ccc4c(S(=O)(=O)[O-])cc(S(=O)(=O)[O-])cc4c3C2(C)C)C(C)(C)c2c1ccc1c(S(=O)(=O)[O-])cc(S(=O)(=O)[O-])cc21.[K+].[K+].[K+]` [S-CY5.5A, Sulfo-cyanine 5.5 alkyne]?
A: Intra-fish distribution after pericardial (PC) microinjection ([1]; in vivo): rapidly distributed to the vasculature; ke (total elimination rate constant) [2]: 0.023 h⁻¹; Q (passive exchange with the medium) [2]: 0.34 L/h × 10^−9; t1/2 (elimination half-life, ln(2)/ke) [2]: 30.26 h; Comparison of passive exchange with the medium (Q) among compounds [2]: slowest one to be exchanged

Q: With Sulfo-cyanine 3 alkyne [S-CY3A] as the compound, how does the “Intra-fish distribution after pericardial (PC) microinjection” value ([1]; in vivo) read?
A: The value was “rapidly distributed to the vasculature”.

Q: And the “ke (total elimination rate constant)” value [2]?
A: Its value is 0.012 h⁻¹.

Q: And the “Q (passive exchange with the medium)” value [2]?
A: Its value is 0.23 L/h × 10^−9.

Q: And the “t1/2 (elimination half-life, ln(2)/ke)” value [2]?
A: The value was 57.40 h.

Q: Which results are given for Sulfo-cyanine 5 alkyne [S-CY5A]?
A: Intra-fish distribution after pericardial (PC) microinjection ([1]; in vivo): rapidly distributed to the vasculature; Level and intra-body fluorescence distribution at 48 h, combination (immersion + PC) compared with PC microinjection ([1]; in vivo): altered; ke (total elimination rate constant) [2]: 0.014 h⁻¹; Q (passive exchange with the medium) [2]: 1.61 L/h × 10^−9; t1/2 (elimination half-life, ln(2)/ke) [2]: 50.41 h
